How the values were obtained:
NCI-H716 cells = experiment: cells; assay type: cell-based, Human; settings: for hNCI-H716 GLP1 Secretion IC50/EC50: assay number 12
DLD-1 = experiment: cells; assay type: cell-based; settings: for Basal_Viability ATP DLD-1 IC50/EC50: assay number 23
SW480 = experiment: cells; assay type: cell-based; settings: for Basal_Viability ATP SW480 IC50/EC50: assay number 24
STC-1 cell line = assay type: cell-based, mouse; settings: for mSTC-1 GLP1 Secretion IC50/EC50: assay number 13
SNU-C1 = experiment: cells; assay type: cell-based; settings: for Basal_Viability ATP SNU-C1 IC50/EC50: assay number 30
[1] = system: HCT116 cells treated with a GSK3β inhibitor; experiment: cells; assay type: cell-based; settings: for GSK3b inh pretreated_Viability ATP HCT116 IC50/EC50: assay number 26, GSK3b inhibitor pretreated
HT-29 = experiment: cells; assay type: cell-based; settings: for Basal_Viability ATP HT-29 IC50/EC50: assay number 28
RKO = experiment: cells; assay type: cell-based; settings: for Basal_Viability ATP RKO IC50/EC50: assay number 29
HCT116 = experiment: cells; assay type: cell-based; settings: basal; for Basal_Viability ATP HCT116 IC50/EC50: assay number 25
Colo320 = experiment: cells; assay type: cell-based; settings: for Basal_Viability ATP Colo 320 IC50/EC50: assay number 27
[2] = system: ECFC/ADSC co-culture cell nuclei number
HeLa cells = experiment: cells; assay type: cell-based; settings: for Hela CellCycMod PI 2N IC50/EC50: assay number 14; for Hela CellCycMod PI S Phase IC50/EC50: assay number 15; for Hela CellCycMod PI 4N IC50/EC50: assay number 16; for Hela CellCycMod PI MI IC50/EC50: assay number 17; for Hela CellCycMod PI Cell Number IC50/EC50: assay number 18
[3] = system: endothelial tube formation in co-cultures of ECFCs and ADSCs treated with VEGF; experiment: cells; assay type: cell-based, human

Compound	hNCI-H716 GLP1 Secretion IC50/EC50 (NCI-H716 cells) [nM]	VEGF_ADSC\ECFC Angio Hoechst NucArea IC50/EC50 [2] [nM]	VEGF_ADSC\ECFC Angio CD31 TubeArea IC50/EC50 [3] [nM]	mSTC-1 GLP1 Secretion IC50/EC50 (STC-1 cell line) [nM]	Basal_Viability ATP HCT116 IC50/EC50 (HCT116) [nM]	GSK3b inh pretreated_Viability ATP HCT116 IC50/EC50 [1] [nM]	Basal_Viability ATP DLD-1 IC50/EC50 (DLD-1) [nM]	Basal_Viability ATP SW480 IC50/EC50 (SW480) [nM]	Basal_Viability ATP SNU-C1 IC50/EC50 (SNU-C1) [nM]	Basal_Viability ATP HT-29 IC50/EC50 (HT-29) [nM]	Basal_Viability ATP RKO IC50/EC50 (RKO) [nM]	Basal_Viability ATP Colo 320 IC50/EC50 (Colo320) [nM]	other results
OCCN1CCN(CC/C=C2/c3ccccc3Sc3ccc(C(F)(F)F)cc32)CC1 [NCGC00162179-08]													IC50/EC50, hNCI-H716 GLP1 Secretion (assay number 12) (NCI-H716 cells; concentration response): 32155.5 nM; IC50/EC50, Basal_Viability ATP DLD-1 (assay number 23) (DLD-1; basal): 1467 nM; IC50/EC50, Basal_Viability ATP SW480 (assay number 24) (SW480; basal): 3928 nM; IC50/EC50, mSTC-1 GLP1 Secretion (assay number 13) (STC-1 cell line; concentration response): > 40000 nM; IC50/EC50, Basal_Viability ATP SNU-C1 (assay number 30) (SNU-C1; basal): 1035 nM; IC50/EC50, GSK3b inh pretreated_Viability ATP HCT116 (assay number 26) ([1]; GSK3b inh pretreated): 2894 nM; IC50/EC50, Basal_Viability ATP HT-29 (assay number 28) (HT-29; basal): 1808 nM; IC50/EC50, Basal_Viability ATP RKO (assay number 29) (RKO; basal): 317.8 nM; IC50/EC50, Basal_Viability ATP HCT116 (assay number 25) (HCT116): 4577 nM; IC50/EC50, Basal_Viability ATP Colo 320 (assay number 27) (Colo320; basal): 2313.8 nM
O=C(O)C[CH2][Ge](=[O])[O][Ge](=[O])[CH2]CC(=O)O [NCGC00164525-02]	1527.1	260.6	154.6	793.2									Hela CellCycMod PI 2N IC50/EC50 (HeLa cells): > 10000 nM; Hela CellCycMod PI S Phase IC50/EC50 (HeLa cells): > 10000 nM; Hela CellCycMod PI 4N IC50/EC50 (HeLa cells): > 10000 nM; Hela CellCycMod PI MI IC50/EC50 (HeLa cells): > 10000 nM; Hela CellCycMod PI Cell Number IC50/EC50 (HeLa cells): 503.4 nM
OC1(c2ccc(Cl)c(C(F)(F)F)c2)CCN(CCCC(c2ccc(F)cc2)c2ccc(F)cc2)CC1 [NCGC00165865-02]	8448			> 40000	1853								Basal_Viability ATP DLD-1 IC50/EC50 (DLD-1; basal): 1139.3 nM; Basal_Viability ATP SNU-C1 IC50/EC50 (SNU-C1; basal): 167.5 nM; Basal_Viability ATP HT-29 IC50/EC50 (HT-29; basal): 945.9 nM; Basal_Viability ATP RKO IC50/EC50 (RKO; basal): 971.2 nM; Basal_Viability ATP Colo 320 IC50/EC50 (Colo320; basal): 961.7 nM
CCCCCCCCCCCCCCCC[N+](C)(C)CC.[Br-] [NCGC00166120-02]	11734.7	7579	1137.8	> 40000	3159.5	2682.5							Basal_Viability ATP DLD-1 IC50/EC50 (DLD-1; basal): 740.3 nM; Basal_Viability ATP SW480 IC50/EC50 (SW480; basal): 1238.7 nM; Basal_Viability ATP SNU-C1 IC50/EC50 (SNU-C1; basal): 4 nM; Basal_Viability ATP HT-29 IC50/EC50 (HT-29; basal): 409.1 nM; Basal_Viability ATP RKO IC50/EC50 (RKO; basal): 930.9 nM; Basal_Viability ATP Colo 320 IC50/EC50 (Colo320; basal): 37.2 nM
Clc1ccc(CCC(Cn2ccnc2)Sc2c(Cl)cccc2Cl)cc1 (centres unmarked) [NCGC00179596-03]	15980.7	6743	3531.3	6995.3	2064.2	841.4	1836.7	1693.6	995.6	3009	2304.5	221.1	
Clc1ccc(C(Cn2ccnc2)OCc2c(Cl)cccc2Cl)c(Cl)c1 (centres unmarked) [NCGC00179642-03]	> 40000			> 40000	1593.9	1398.4	2355.4	2601.1	886.1	5003.2	4010.7	1816.8	
Cl.Oc1ccc([C@H]2CNCc3c2ccc(O)c3O)cc1O [NCGC00183049-01]	5946.2			> 20000	> 20000	187.6	> 20000	> 20000	> 20000	> 20000	33.16	466.2	Hela CellCycMod PI 2N IC50/EC50 (HeLa cells): > 10000 nM; Hela CellCycMod PI S Phase IC50/EC50 (HeLa cells): > 10000 nM; Hela CellCycMod PI 4N IC50/EC50 (HeLa cells): > 10000 nM; Hela CellCycMod PI MI IC50/EC50 (HeLa cells): > 10000 nM; Hela CellCycMod PI Cell Number IC50/EC50 (HeLa cells): > 10000 nM
Cl.Nc1cc(C(F)(F)F)ccc1S [NCGC00262926-01]	15321.4	> 10000	> 10000	1156.1									
